Experimental data taken from patent US5556744A, “Methods and compositions for diagnosing and treating certain HIV infected patients” (The Trustees of the University of Pennsylvania, priority 1994, dated 1996).

Legend:
gp41 peptides = experiment: Number of gp41 peptides bound by maternal sera (Examples 3, 4); type: binding, HIV-1 IIIB; conditions: Table 8
Experimental: (§1) Radioimmunoassay (RIA) and enzyme-linked immunosorbent assay (ELISA) were performed by standard methodologies [E. Engvall, Meth. Immunol., 70:419-439 (1980); S. K. Pierce et al, J. Exp. Med., 144:1254-1262 (1976)]. Peptides were dissolved in 0.05M carbonate-bicarbonate buffer (pH 9.6) at a concentration of 10 μg/ml. Fifty μl (500 ng) of the peptides were immobilized in 96 well polyvinylchloride plates (Dynatech Laboratories, Inc.) overnight at 4° C. Plates were washed and non-specific sites were blocked with PBS containing 1% BSA overnight at 4° C.
(§2) Dilutions of HIV positive maternal sera were made in blocking buffer at dilutions of 1:50 and 1:500 and incubated in peptide coated plates overnight at 4° C. Plates were washed with PBS and incubated with 75,000 cpm of ^125 I-labelled goat anti-human IgG. The antibody was iodinated by a chloramine T method [W. V. Williams et al, Proc. Natl. Acad. Sci. USA, 85:6488-6492 (1988)]. Plates were washed, dried and counted in a gamma counter to measure specific binding. Normal human serum (i.e., HIV seronegative) was used as a control.
(§3) Alternatively, ELISA assays were performed in polystyrene plates (Dynatech Laboratories, Inc) in which 0.05% Tween 20 (Sigma Chemical Co.) was included in the washing, blocking and dilution buffers. The secondary antibody used was goat […] Ig conjugated to horseradish peroxidase (HRP) (Sigma Chemical Co). The substrate used for color development was 3,3',5,5' tetramethyl-benzidine dihydrochloride (TMB) (Sigma Chemical Co). Absorbance of samples was measured in a Dynatech MR5000 (Dynatech Laboratories, Inc.) plate reader and expressed as an optical density at wavelength of 450 nm (OD450).
(§4) The results of the binding assays are represented in Tables 3, 4, 6 and 7. The following key is used for the designation of specific binding of the maternal sera samples to the peptides: The minus sign, -, is equivalent to the specific OD450 or cpm of sera sample binding to peptide divided by the specific OD450 or cpm of NHS sample binding to peptide, which value is less than 2. The plus sign, +, is equivalent to the specific OD450 or cpm of sera sample binding to peptide divided by the specific OD450 or cpm of NHS sample binding to peptide, which value is between 2 to 3. The double plus sign, ++, is equivalent to the specific OD450 or cpm of sera sample binding to peptide divided by the specific OD450 or cpm of NHS sample binding to peptide, which value is greater than 3.
(§5) Comparisons of number of peptides which bound maternal serum samples were made between the transmission group and the nontransmission group. The data was analyzed using the unpaired student's test. For the determination of differences in the binding of specific peptides between transmission and non-transmission groups, the Spearman's rank-order correlation test was performed.

[1] = test system: HIV-1 infected cells (MN isolate); experiment: Anti-syncytial assay (inhibition of HIV-1 MN syncytium formation, SupT1 target cells); type: cell-based; conditions: HIV-1 MN, SupT1 cells, 3 days; vs normal human serum
Text: (§6) The H9 cell line (a cutaneous T lymphoma line) infected by HIV-IIIB [ATCC CRL 8543] was used in the neutralization assay. The H9 cell line infected by HIV-MN was used in the anti-syncytial assays. SupT1 and Hut78 cells were used as the target cell lines for the anti-syncytial and neutralization assays. All cell lines were obtained from the National Institutes of Health AIDS Repository (Bethesda, Md.).
To analyze the effect of the maternal serum samples on HIV-1 fusion, SupT1 cells were used as target cells in an anti-syncytial assay. Dilutions of the different maternal serum samples were made in 96 well plates in RPMI 1640 media containing 10% fetal calf serum at final dilutions of 1:4, 1:8, 1:16, 1:32, 1:64, 1:128, 1:256 or 1:512. HIV-1 infected cells (MN isolate) were then plated in the wells at a density of approximately 10^4 cells per well. SupT1 target cells were then added at 5×10^5 /well and the number of syncytia are determined after 3 days of incubation. Inhibition of syncytium formation by a serum sample was considered significant if the dilution which yielded a 50% reduction in the number of syncytia when compared to control was greater than 1:32. The average number of syncytia in the control (normal human serum) wells at the above dilutions were: 45.5, 48.5, 44, 48, 48.5, 41.5, 42 and 45.5 respectively.

HIV-IIIB viral isolate = experiment: Neutralization assay (HIV-IIIB, Hut-78 cells, p24 antigen ELISA); type: cell-based, HIV-1 IIIB; parameters: key to Neutralization Activity, Dilution Resulting in ≥50% Inhibition: --: (-) indicates negative (i.e. a dilution of <1:10); conditions: HIV-IIIB, Hut-78 cells, p24 OD450 after 6 days; vs normal human serum
Experimental: as §6
In a neutralization assay, 20 μl of maternal sera samples was placed in 96 round bottom well plates at final dilutions of 1:10, 1:90 and 1:810 in RPMI. The HIV-IIIB viral isolate was diluted in RPMI to a TCID50 of 100 units/ml. Twenty μl of the virus solution was placed in each well and the plate was incubated for one hour at 4° C. Hut-78 cells were incubated with 2 μg/ml of polybrene for one hour at 37° C. in a CO2 incubator. The HUT-78 cells were washed and resuspended in fresh RPMI to a final concentration of 4×10^6 cells/ml. Ten μl of the cell suspension was added to each well and the plate was incubated for one hour in a 37° C., CO2 incubator.
Fifteen μl of the serum/cell/virus solution was aliquoted to a new plate containing 200 μl of fresh RPMI and incubated for 6 days. After 6 days, 100 μl was used to analyze for p24 antigen. The p24 capture ELISA assay kit (Coulter Corporation, Hialeah, Fla.) was used to perform the measurements.
Further, sera samples at the same dilutions as described above were tested for residual p24 core protein or antibody to insure the results were due only to viral infection.

gp120 peptides = experiment: Number of gp120 peptides bound by maternal sera (Examples 3, 4); type: binding, HIV-1 IIIB; conditions: Table 8
Experimental: as §1, §2, §3, §4, §5

Row | Substance | Number of gp41 Peptides Bound (+ or ++) (gp41 peptides) | Anti-Syncytial Activity, Dilution Resulting in ≥50% Inhibition [1] | Neutralization Activity, Dilution Resulting in ≥50% Inhibition (HIV-IIIB viral isolate) | Number of gp120 Peptides Bound (+/++) (gp120 peptides)
1 | HP7: gp120 peptide, amino acids 107-121, SEQ ID NO:103 (DIISLWDQSLKPCVK) | 3 | 1:64 | 1:810 | 3
2 | HP10: gp120 peptide, amino acids 157-171, SEQ ID NO:105 (CSFNISTSIRGKVQK) | 0 | 1:256 | -- | 2
3 | HP1: gp120 peptide, amino acids 93-107, SEQ ID NO:99 (FNMWKNDMVEQMHED) | 6 | 1:64 | -- | 6
4 | HP9: gp120 peptide, amino acids 141-155, SEQ ID NO:104 (NSSSGRMIMEKGEIK) | 1 | 1:256 | 1:810 | 3
